Tests used:
C. violaceum CV026 = experiment: Preliminary screening of bacterial quorum sensing agonistic / inhibitory activity on LB plate (purple stain / white circle); format: cell-based; conditions: for Regulatory activity (bacterial quorum sensing regulatory activity): 1 μl of 0.065M compound spotted on plate, inhibitory screen with inducer C6-HSL, 30° C., 16-18 h; for Effect on bacterial quorum sensing (summary in words): summary of the activity evaluation experiments
Experimental: 1.1 Preparation work: different compounds to be tested (Compounds 1-40 prepared in Example 1-40) were weighted and then were dissolved in 200 μl DMSO (dimethyl sulfoxide) to prepare a solution at a concentration of 0.065M. 5.0 mg inducer, N-hexanoyl homoserine lactone (C6-HSL, purchased from Sigma Company), was weighted and was dissolved in 200 μl DMSO (at a concentration of 0.125M), and the compounds and the inducer were stored at 4 for further use. C. violaceum CV026 (donated by Professor McLean J C from Texas State University) in LB culture medium (LB culture medium consisting of 1% (percentage by mass) tryptone, 0.5% (percentage by mass) yeast extract, 1% (percentage by mass) NaCl and water) was cultured under shaking in a shaker at 30, 200 rpm to get the culture medium for further use.
1.2 Method for preliminary screening of compounds having agonistic activity: 400 μl C. violaceum CV026 (at a bacterial concentration of 1×10^8/ml) was added to 5 ml melted semi-solid LB culture medium, and was mixed well; the mixed culture medium was poured into a solid LB plate; when the mixed culture medium was solidified on the plate, lattice was made thereon; 1 μl of the dissolved compounds to be tested (Compounds 1-40 in Examples 1-40, at a concentration of 0.065M) was spotted on the plate; when the compounds on the plate was dried in air, the plate was put in a 30° C. oven upside down and was cultured for a period of 16-18 h. If the compound to be tested has an agonistic effect on C. violaceum CV026 on the LB plate, purple stain will be induced on the LB plate. The agonistic activity of a compound is determined depending on whether purple stain is induced for C. violaceum CV026 on LB plate as well as the purple depth.
1.3 Method for preliminary screening of compounds having inhibitory activity: the inducer C6-HSL was diluted gradiently to 1000 times by means of 2-fold dilution; 15 μl diluted inducer and 400 μl C. violaceum CV026 in exponential phase (at a bacterial concentration of 1×10^8/ml) were mixed well and then were added to a 5 ml melted semi-solid LB culture medium; the mixture of inducer, C. violaceum, and semi-solid LB was poured onto a solid LB plate; when the mixture was solidified on the plate, lattice was made thereon: 1 μl of the dissolved compounds to be tested (Compounds 1-40 in Examples 1-40, at a concentration of 0.065M) was spotted on the plate; when the compounds on the plate were dried in air, the plate was put in a 30° C. oven upside down and was cultured for a period of 16-18 h. If the compound to be tested has an inhibitory effect on C. violaceum CV026 on the LB plate, white circle will appear on the LB plate. The inhibitory activity of a compound is preliminary determined depending on the size of the white circle appeared after C. violaceum CV026 was inhibited on LB plate.
It is found after preliminary screening that 22 compounds according to the invention have bacterial quorum sensing regulatory activity, and the screening result was shown in Table 1.

Row | SMILES | melting point | Regulatory activity (bacterial quorum sensing regulatory activity) (C. violaceum CV026) | Effect on bacterial quorum sensing (summary in words) (C. violaceum CV026)
1 | O=C(NN1CCOC1=O)c1cccc(F)c1 | 166 to 169 °C |  | 
2 | Cc1ccc(NC(=O)NN2CCOC2=O)cc1 | 205 to 207 °C |  | 
3 | Cc1cccc(NC(=O)NN2CCOC2=O)c1 | 191 to 192 °C |  | 
4 | O=C(Nc1cccc(Br)c1)NN1CCOC1=O | 197 to 199 °C |  | 
5 | O=C(Nc1ccc(OC(F)(F)F)cc1)NN1CCOC1=O | 205 to 206 °C |  | 
6 | O=C(NN1CCOC1=O)c1ccc(F)cc1 [Compound 1, 4-fluoro-N-(2-oxo-oxazolidin-3-yl)benzamide] | 189 to 192 °C |  | 
7 | CC(C)(C)c1ccc(C(=O)NN2CCOC2=O)cc1 [Compound 2, 4-tert-butyl-N-(2-oxo-oxazolidin-3-yl)benzamide] | 187 to 189 °C | − | inhibitory effect on bacterial quorum sensing
8 | O=C(NN1CCOC1=O)c1ccc(CCl)cc1 [Compound 3, 4-chloromethyl-N-(2-oxo-oxazolidin-3-yl)benzamide] | 206 to 208 °C | − | inhibitory effect on bacterial quorum sensing
9 | O=C(NN1CCOC1=O)c1ccccc1Cl [Compound 4, 2-chloro-N-(2-oxo-oxazolidin-3-yl)benzamide] | 166 to 168 °C | ± | both an agonizing effect and an inhibitory effect
10 | O=C(NN1CCOC1=O)c1cccc(Cl)c1 [Compound 5, 3-chloro-N-(2-oxo-oxazolidin-3-yl)benzamide] | 151 to 152 °C | + | 
11 | O=C(NN1CCOC1=O)c1ccccc1F [Compound 6, 2-fluoro-N-(2-oxo-oxazolidin-3-yl)benzamide] | 124 to 127 °C |  | 
12 | Cc1cccc(C(=O)NN2CCOC2=O)c1 [Compound 8, 3-methyl-N-(2-oxo-oxazolidin-3-yl)benzamide] | 148 to 150 °C | + | 
13 | O=C(NN1CCOC1=O)c1ccc(F)cc1 [Compound 9, 4-fluoro-N-(2-oxo-oxazolidin-3-yl)benzamide] |  | + | 
14 | O=C(NN1CCOC1=O)c1ccccc1C(F)(F)F [Compound 10, 2-trifluoromethyl-N-(2-oxo-oxazolidin-3-yl)benzamide] | 139 to 141 °C | + | 
15 | CCCCNC(=O)NN1CCOC1=O [Compound 15, 1-(2-oxo-oxazolidin-3-yl)-3-butyl urea] | 98 to 100 °C |  | 
16 | CCCCCNC(=O)NN1CCOC1=O [Compound 16, 1-(2-oxo-oxazolidin-3-yl)-3-pentyl urea] | 83 to 86 °C |  | 
17 | CCCCCCNC(=O)NN1CCOC1=O [Compound 17, 1-(2-oxo-oxazolidin-3-yl)-3-hexyl urea] | 74 to 75 °C |  | 
18 | CCCCCCCNC(=O)NN1CCOC1=O [Compound 18, 1-(2-oxo-oxazolidin-3-yl)-3-heptyl urea] | 68 to 69 °C | − | inhibitory effect on bacterial quorum sensing

Row | SMILES | melting point | Regulatory activity (bacterial quorum sensing regulatory activity) (C. violaceum CV026) | Effect on bacterial quorum sensing (summary in words) (C. violaceum CV026)
19 | CCCCCCCCNC(=O)NN1CCOC1=O [Compound 19, 1-(2-oxo-oxazolidin-3-yl)-3-octyl urea] | 64 to 65 °C | − | inhibitory effect on bacterial quorum sensing
20 | O=C(Nc1ccc(Br)cc1)NN1CCOC1=O [Compound 20, 1-(4-bromophenyl)-3-(2-oxo-oxazolidin-3-yl)urea] | 212 to 215 °C |  | 
21 | O=C(NC1CCCCC1)NN1CCOC1=O [Compound 22, 1-cyclohexyl-3-(2-oxo-oxazolidin-3-yl)urea] | 203 to 205 °C |  | 
22 | O=C(NCc1ccccc1)NN1CCOC1=O [Compound 23, 1-benzyl-3-(2-oxo-oxazolidin-3-yl)urea] | 160 to 161 °C |  | 
23 | O=C(NCCc1ccccc1)NN1CCOC1=O [Compound 24, 1-(2-oxo-oxazolidin-3-yl)phenyl ethyl urea] | 123 to 125 °C |  | 
24 | O=C1OCCN1NC(=S)Nc1ccccc1 [Compound 27, 1-(2-oxo-oxazolidin-3-yl)phenylthiourea] | 191 to 193 °C |  | 
25 | O=C1OCCN1NC(=S)Nc1ccc(F)cc1 [Compound 28, 1-(4-fluorophenyl)-3-(2-oxo-oxazolidin-3-yl)sulfourea] | 190 to 191 °C |  | 
26 | O=C(Cc1ccc(F)cc1)NN1CCOC1=O [Compound 31, 2-(4-fluorophenyl)-N-(2-oxo-oxazolidin-3-yl)acetamide] | 131 to 134 °C | + | 
27 | COc1ccc(CC(=O)NN2CCOC2=O)cc1 [Compound 32, 2-(4-methoxyphenyl)-N-(2-oxo-oxazolidin-3-yl)acetamide] | 90 to 92 °C | + | 
28 | O=C(Cc1ccc([N+](=O)[O-])cc1)NN1CCOC1=O [Compound 33, 2-(4-nitrophenyl)-N-(2-oxo-oxazolidin-3-yl)acetamide] | 180 to 183 °C | + | 
29 | O=C(Cc1ccc(Cl)cc1)NN1CCOC1=O [Compound 34, 2-(4-chlorophenyl)-N-(2-oxo-oxazolidin-3-yl)acetamide] | 124 to 127 °C | + | 
30 | Cc1ccc(CC(=O)NN2CCOC2=O)cc1 [Compound 35, 2-(4-tolyl)-N-(2-oxo-oxazolidin-3-yl)acetamide] | 108 to 111 °C | + | 
31 | O=C(CCc1ccc([N+](=O)[O-])cc1)NN1CCOC1=O [Compound 36] | 143 to 145 °C | + | 
32 | O=C(CCc1ccccc1)NN1CCOC1=O [Compound 37] |  | + | 
33 | Cc1ccc(CCC(=O)NN2CCOC2=O)cc1 [Compound 38] | 146 to 148 °C | + | 
34 | O=C(CCc1ccc(Cl)cc1)NN1CCOC1=O [Compound 39] | 134 to 136 °C | + | 
35 | O=C(CCCc1ccccc1)NN1CCOC1=O [Compound 40, N-(2-oxo-oxazolidin-3-yl)-4-phenyl butanamide] | 104 to 107 °C | + | 

Source: patent US9914711B2 (priority 2013, dated 2018)
